The results in this text go back to patent publication US6444434B1, “FVIIa/TF activity inhibiting compounds” (Novo Nordisk A/S, priority 1999, dated 2002).

Experiment [1] has as its target T1, FVIIa/TF-catalyzed activation of FX (Homo sapiens, UniProt P08709).
T1 construct: Single-chain FVII may be converted to two-chain FVIIa by factor Xa
Put plainly: FX activation assay (FVIIa/TF-catalyzed FX activation). It counts as biochemical.

The target in a further experiment is T2, TF/FVIIa (Homo sapiens, UniProt P08709).
T2 construct: Single-chain FVII may be converted to two-chain FVIIa by factor Xa; 20 microliters of soluble TF (250 nM in buffer)
T2 sequence (P08709 61-212 limits assumed): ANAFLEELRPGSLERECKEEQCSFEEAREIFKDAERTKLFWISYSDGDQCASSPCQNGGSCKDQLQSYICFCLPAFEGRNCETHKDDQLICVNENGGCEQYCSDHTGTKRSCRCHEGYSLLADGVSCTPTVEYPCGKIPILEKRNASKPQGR
T2 sequence (P08709 213-466 limits assumed): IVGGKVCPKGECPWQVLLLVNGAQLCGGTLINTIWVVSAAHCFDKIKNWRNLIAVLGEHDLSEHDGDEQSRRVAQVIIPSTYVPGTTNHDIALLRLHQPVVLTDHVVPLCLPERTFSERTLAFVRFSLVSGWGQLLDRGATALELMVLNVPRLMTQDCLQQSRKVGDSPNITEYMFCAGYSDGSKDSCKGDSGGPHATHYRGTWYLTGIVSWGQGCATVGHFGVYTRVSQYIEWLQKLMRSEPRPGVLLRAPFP
Put plainly: FVIIa/TF amidolytic assay. The format is biochemical. The note with it: 10 nM FVIIa, 25 nM soluble TF, 1 mM S-2288. As to the method: (§1) Compound solutions and buffer are the same as in the above FX activation assay. 150 microliters of FVIIa (13.3 nM in buffer), 20 microliters of soluble TF. (250 nM in buffer), 10 microliters of test compound (various concentrations in DMSO) and 20 microliters of substrate S-2288 (10 mM in water) is mixed in microtiter plate well. This gives final concentrations of FVII(a, TF and S-2288 of 10 nM, 25 nM and 1 mM, respectively. The absorbance at 405 nm is measured continuously for 20 minutes. The degree of inhibition is calculated from the slope of the absorbance curve compared to the curve obtained when using DMSO without test compound.
as §1, with “TF” for “TF.”, “DM80)” for “DMSO)”, “FVIIa,” for “FVII(a,”

For another experiment, the target named is FXa (Homo sapiens, UniProt P00742). Briefly: FXa amidolytic assay. It counts as biochemical. The note with it: 1 nM FXa, 1 mM S-2765; read-out: FX amidolytic IC50 FX. The method, then: Compound solutions and buffer are the same as in the above FX activation assay. 170 microliters of FXa (1.17 nM in buffer), 10 microliters of test compound (various concentrations in DMSO) and 20 microliters of substrate S-2765 (10 mM in water) is mixed in a microtiter plate well. This gives-final concentrations of FXa and S-2765 of 1 nM and 1 mM, respectively. The absorbance at 405 nm is measured continuously for 20 minutes. The degree of inhibition is calculated from the slope of the absorbance curve compared to the curve obtained when using DMSO without test compound.
FXa, sequence (P00742 41-179 limits assumed): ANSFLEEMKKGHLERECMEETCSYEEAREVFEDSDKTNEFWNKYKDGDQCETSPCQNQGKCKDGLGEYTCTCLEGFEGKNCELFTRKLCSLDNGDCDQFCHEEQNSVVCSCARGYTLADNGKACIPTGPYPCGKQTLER
FXa, sequence (P00742 235-488 limits assumed): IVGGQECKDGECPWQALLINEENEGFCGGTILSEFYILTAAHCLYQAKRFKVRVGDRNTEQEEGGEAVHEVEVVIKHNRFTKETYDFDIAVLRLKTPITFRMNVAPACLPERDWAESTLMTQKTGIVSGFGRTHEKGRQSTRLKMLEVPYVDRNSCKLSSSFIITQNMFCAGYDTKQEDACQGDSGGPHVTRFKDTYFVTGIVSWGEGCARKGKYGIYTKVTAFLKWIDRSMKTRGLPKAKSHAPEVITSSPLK
Compound solutions and buffer are the same as in the above FX activation assay. 170 microliters of FXa (1.17 nM in buffer), 10 microliters of test compound (various concentrations in DMSO) and 20 microliters of substrate S-2765 (10 mM in water) is mixed in a microtiter plate well. This gives final concentrations of FXa and S-2765 of 1 nM and 1 mM, respectively. The absorbance at 405 nm is measured continuously for 20 minutes. The degree of inhibition is calculated from the slope of the absorbance curve compared to the curve obtained when using DMSO without test compound.

Experiment [2] deals with citrated normal human plasma. Briefly: FVIIa/TF-initiated plasma clotting assay. The note with it: ratio of clotting time with/without compound; final compound concentration 0.33 mM; thromboplastin (Innovin). The method, then:
The test compounds, 20 mM in DMSO, are diluted in citrated normal human plasma just before the analysis (1+19) and placed in the sample carousel. 55 μl sample (compound in plasma) is mixed with 55 μl of thromboplastin (Innovin, Dade) and incubated for 5 min. The clotting reaction is started by adding 55 μl of a 25-mM CaCl2 solution, yielding a final compound concentration of 0.33 mM. The clotting time is measured using an ACL 300 R coagulometer. The ratio between the clotting time in the presence and absence of test compound is used to quantify the anticoagulant efficiency.

The target of experiment [3] is T3, FVIIa/TF-catalyzed activation of FX (Homo sapiens, UniProt P08709+P13726).
T3 construct: Single-chain FVII may be converted to two-chain FVIIa by factor Xa
T3 sequence (P13726 33-295, one chain of several): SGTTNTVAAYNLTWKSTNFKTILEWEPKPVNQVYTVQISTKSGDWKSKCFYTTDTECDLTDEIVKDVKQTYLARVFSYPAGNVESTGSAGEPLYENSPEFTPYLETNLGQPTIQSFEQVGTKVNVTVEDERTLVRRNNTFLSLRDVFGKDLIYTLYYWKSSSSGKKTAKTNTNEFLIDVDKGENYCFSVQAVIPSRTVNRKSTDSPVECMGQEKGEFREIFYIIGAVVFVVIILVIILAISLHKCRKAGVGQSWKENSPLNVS
Put plainly: FX activation assay (FVIIa/TF-catalyzed FX activation). It counts as biochemical. The note with it: second part of table, Examples 14-22.

Where [4] appears, read: 100 pM FVIIa, 5 pM TF, 175 nM FX, FXa read with S-2765, read-out: TF/FVII/FX (FX activation) IC50 FXa.
Setting [5] is: second part of table, Examples 14-22, read-out: IC50 (μM) FX activation by FVIIa/TF.

Structures are written as SMILES. Read-outs that look alike come from different tables or passages of the source.

T1 sequence (P13726 33-295, one chain of several, further chain): as the sequence (P13726 33-295, one chain of several) above

`CCC(=C(c1ccc(OC)cc1)c1ccc(OC)cc1)c1cn(CC(O)CN2CCCC2)c2ccccc12` (stereo not drawn) [Example 11, 1-{3-[1-Ethyl-2,2-bis-(4-methoxy-phenyl)-vinyl]-indol-1-yl}-3-pyrrolidin-1-yl-propan-2-ol]: the IC50 in experiment [1] (setting [4]) was 7.7 µM; at TF/FVIIa, > 200 µM; at FXa, > 200 µM. For the same compound, the Clot ratio in experiment [2] was 1.64.
For `CCN(CC)CCCC(C)Nc1nc(C=Cc2ccc(Br)cc2Br)nc2cc(Cl)ccc12` (stereo not drawn) [Example 15, N4-{7-chloro-2-[2-(2,4-dibromo-phenyl)-vinyl]-quinazolin-4-yl}-N1,N1-diethyl-pentane-1,4-diamine], in experiment [1] (setting [5]), the IC50 was < 20 µM.
`CCCCCCCCCCCCCCCCn1c2c(c(=N)c3c1CCC3)CCC2` [Example 10, 4-Hexadecyl-2,3,4,5,6,7-hexahydro-1H-4-aza-s-indacen-8-ylideneamine]: the figures for the IC50 (in experiment [1] (setting [4]); against TF/FVIIa; at FXa) were 7.7 µM, > 200 µM and > 200 µM, respectively. The Clot ratio in experiment [2] is recorded as 2.84.
Consider `CC(C)Cc1ccc(C(C)CNC(=N)C(C)c2ccc(CC(C)C)cc2)cc1` (stereo not drawn) [Example 9, 2-(4-Isobutyl-phenyl)-N-[2-(4-isobutyl-phenyl)-propyl]-propionamidine], for which the IC50 in experiment [1] (setting [4]) is 11 µM; against TF/FVIIa, > 200 µM; at FXa it was > 200 µM. Also, in experiment [2], the Clot ratio is reported as >3.
`CN(C)C1CCN(Cc2c[nH]c3ccc(OCc4ccccc4)cc23)CC1` [Example 18, N-[5-benzyloxy-1H-indol-3-ylmethyl]-4-dimethylaminopiperidine]: in experiment [1] (setting [5]), the IC50 was < 20 µM.
Take `CCCCCCCOc1ccc(/C(=N\C2CC(C)(C)NC(C)(C)C2)c2ccccc2)cc1` [Example 13, [(4-Heptyloxy-phenyl)-phenyl-methylene]-(2,2,6,6-tetramethylpiperidin-4-yl)-amine]: the IC50 is 5.8 µM in experiment [1] (setting [4]), > 200 µM against TF/FVIIa and > 200 µM at FXa. Besides, in experiment [2], the Clot ratio came to 2.06.
Consider `CN(C)CCc1cn(Cc2ccc(Cl)c(Cl)c2)c2cc(Cl)c(OCc3ccccc3)cc12` [Example 21, N,N-dimethyl-1-(3,4-dichlorobenzyl)-5-benzyloxy-6-chlorotrypamine], for which the IC50 in experiment [3] is < 20 µM.
Consider `NC(CC(=O)NC(Cc1c[nH]c2ccccc12)C(=O)O)(P(=O)(O)O)P(=O)(O)O` (stereo not drawn) [Example 19, 2-(3-amino-3,3-bis-phosphono-propionylamino)-3-(1H-indol-3-yl)-propionic acid], for which the IC50 in experiment [1] (setting [5]) is < 20 µM.
For `CCN(CC)CCCC(C)Nc1nc(/C=C/C=C/c2ccccc2)nc2cc(Cl)ccc12` (stereo not drawn) [Example 14, N-[7-chloro-2-(4-phenyl-buta-1,3-dienyl)-quinazolin-4-yl]-5-N,N-diethyl-aminopentane-2-amine], the IC50 in experiment [1] (setting [5]) is < 20 µM.
The same measure, in the same setting: next, `CN(C)CCCNC(=O)c1cc2cc(OCc3ccccc3)ccc2n1Cc1ccc(Cl)c(Cl)c1` [Example 20]: < 20 µM; `CCC(=C(c1ccc(OC)cc1)c1ccc(OC)cc1)c1cn(CC(O)CN2CCCC2)c2ccccc12` (stereo not drawn) [Example 22, 1-{3-[1-ethyl-2,2-bis-(4-methoxy-phenyl)-vinyl]-indol-1-yl}-3-pyrrolidin-1-yl-propan-2-ol]: < 20 µM.
With `CN(C)CCNCC(O)CN1CCn2c3c(c4cc(C5CCCCC5)ccc42)CCCC31` (stereo not drawn) [Example 6, 1-(8-Cyclohexyl-1,2,3a,4,5,6-hexahydro-pyrazino[3,2,1-jk]carbazol-3-yl)-3-(2-dimethylamino-ethylamino)-propan-2-ol], the IC50 in experiment [1] (setting [4]) is 17 µM; on TF/FVIIa, > 200 µM; on FXa it was > 200 µM. In addition, the Clot ratio in experiment [2] is >3.
Regarding `N=c1n(CCN2CCCC2)c2ccccc2n1CC(O)COc1ccc(Cl)cc1` (stereo not drawn) [Example 5, 1-(4-Chloro-phenoxy)-3-[2-imino-3-(2-pyrrolidin-1-yl-ethyl)-2,3-dihydro-benzoimidazol-1-yl]-propan-2-ol], the IC50 is 18 µM in experiment [1] (setting [4]), > 200 µM against TF/FVIIa and > 200 µM on FXa. The Clot ratio in experiment [2] is on record as >3.
In the case of `COc1cccc(/C=N\Nc2nc(Nc3ccccc3)nc(Nc3ccc(C)cc3C)n2)c1O` [Example 7, 2-{[4-(2,4-Dimethyl-phenylamino)-6-phenylamino-[1,3,5]triazin-2-yl]-hydrazonomethyl}-6-methoxy-phenol], the results for the IC50 (in experiment [1] (setting [4]); against TF/FVIIa; at FXa) were 17 µM, > 200 µM and > 200 µM, respectively. Further, the Clot ratio in experiment [2] is listed as 1.03.
In the case of `CN(C)CCCN(C)Cc1cn(Cc2ccc(Cl)c(Cl)c2)c2cc(Cl)c(OCc3ccccc3)cc12` [Example 17, N-[5-benzyloxy-6-chloro-1-(3,4-dichlorobenzyl)-1H-indol-3-ylmethyl]-N,N′N′-trimethylpropan-1,3-diamine], the IC50 in experiment [1] (setting [5]) is < 20 µM.
Consider `COc1ccc(/C=C2\c3ccccc3-c3ccc(C(=O)CCCCN4CCCCC4)cc32)cc1OC` [Example 12, 1-[9-(3,4-Dimethoxy-benzylidene)-9H-fluoren-2-yl]-5-piperidin-1-yl-pentan-1-one], for which the IC50 was 7 µM in experiment [1] (setting [4]), > 200 µM on TF/FVIIa and > 200 µM at FXa. The Clot ratio in experiment [2] came to 1.2.
In the case of `CN1CCN(CC(=O)N2CCn3c4c(c5cc(C6CCCCC6)ccc53)CCCC42)CC1` (stereo not drawn) [Example 8, 1-(8-Cyclohexyl-1,2,3a,4,5,6-hexahydro-pyrazino[3,2,1-jk]carbazol-3-yl)-2-(4-methyl-piperazin-1-yl)-ethanone], the results for the IC50 (in experiment [1] (setting [4]); against TF/FVIIa; on FXa) were 14 µM, > 200 µM and > 200 µM, respectively. For the same compound, in experiment [2], the Clot ratio is given as 2.72.
As to `CCN(CC)CCCC(C)Nc1nc(/C=C/c2ccc(Br)cc2)nc2cc(Cl)ccc12` (stereo not drawn) [Example 16, N4-{2-[2-(4-bromo-phenyl)-vinyl]-7-chloro-quinazolin-4-yl}-N1,N1-diethyl-pentane-1,4-diamine], the IC50 in experiment [1] (setting [5]) is < 20 µM.
